Experimental data published in patent publication US8034940B2, “Modulators of glucocorticoid receptor, AP-1, and/or NF-κB activity and use thereof” (Bristol-Myers Squibb Company, priority 2006, dated 2011).

System: AP-1 induced transcriptional activity
Experiment: Cellular Transrepressional Assay (AP-1 luciferase reporter, PMA-activated A549 cells)
Format: cell-based
Settings: for Emax: A549, 7 h, read-out: AP-1 Max % inh (Cellular Transrepression Assay)
Summary of the method: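 A549 cells stably carrying a 7× AP-1–luciferase reporter were stimulated with 10 ng/ml PMA with or without compound (0.1 nM–40 μM) for 7 h. Luminescence read 10 min after luciferase reagent; EC50 fitted from % decrease versus PMA-only signal.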

[1] = Homo sapiens, maximum inhibition, Cellular Transrepression Assay
[2] = Homo sapiens, A549, Cellular Transrepression Assay

EC50 [2]	EC50 (Cellular Transrepression Assay)	SMILES	Emax [1]	AP-1 Max % inh (Cellular Transrepression Assay) (maximum inhibition, Cellular Transrepression Assay)
41.9 nM	–	CN(C)C(=O)c1nnc(NC(=O)C(C)(C)[C@H]2c3ccccc3Oc3nc(-c4ccc(C(=O)N5CCCC5)c(F)c4)ccc32)s1 [Example 420]	42.1%	–
49.8 nM	–	CCNC(=O)c1nnc(NC(=O)C(C)(C)[C@H]2c3ccccc3Oc3nc(-c4ccc(C(=O)N5CCCC5)c(F)c4)ccc32)s1 [Example 421]	42.6%	–
84.1 nM	–	CC(C)(C(=O)Nc1nnc(C(=O)NC2CC2)s1)[C@H]1c2ccccc2Oc2nc(-c3ccc(C(=O)N4CCCC4)c(F)c3)ccc21 [Example 422]	41.6%	–
46.7 nM	–	CC(C)(C(=O)Nc1nnc(C(=O)NC2CC2)s1)[C@H]1c2ccccc2Oc2nc(-c3ccc(C(=O)N4CCOCC4)cc3)ccc21 [Example 422]	63.5%	–
51.5 nM	–	CNC(=O)c1nnc(NC(=O)C(C)(C)[C@H]2c3ccccc3Oc3nc(-c4ccc(C(=O)N5CCOCC5)cc4)ccc32)s1 [Example 422]	50.5%	–
82 nM	–	CC(C)(C(=O)Nc1nnc(CO)s1)[C@H]1c2ccccc2Oc2nc(-c3ccc(C(=O)N4CCCC4)c(F)c3)ccc21 [Example 423]	30.4%	–
150 nM	–	CSc1cnc(NC(=O)C(C)(C)[C@H]2c3ccccc3Oc3nc(-c4ccc(C(=O)N5CCCC5)c(F)c4)ccc32)s1 [Example 424]	59.6%	–
84.4 nM	–	CSc1nnc(NC(=O)C(C)(C)[C@H]2c3ccccc3Oc3nc(-c4ccc(C(=O)N5CCCC5)c(F)c4)ccc32)s1 [Example 425]	49.9%	–
117 nM	–	CC(C)(C(=O)Nc1ncc(S(C)(=O)=O)s1)[C@H]1c2ccccc2Oc2nc(-c3ccc(C(=O)N4CCCC4)c(F)c3)ccc21 [Example 426]	31.8%	–
188 nM	–	C[S+]([O-])c1cnc(NC(=O)C(C)(C)[C@H]2c3ccccc3Oc3nc(-c4ccc(C(=O)N5CCCC5)c(F)c4)ccc32)s1 (some centres unmarked) [Example 427]	25.1%	–
30.3 nM	–	CC(C)(C(=O)Nc1nnc(N)s1)[C@H]1c2ccccc2Oc2nc(-c3ccc(C(=O)N4CCCC4)c(F)c3)ccc21 [Example 428]	26.9%	–
67.3 nM	–	CN(C)c1nnc(NC(=O)C(C)(C)[C@H]2c3ccccc3Oc3nc(-c4ccc(C(=O)N5CCCC5)c(F)c4)ccc32)s1 [Example 429]	41.8%	–
34.7 nM	–	CC(C)(C(=O)Nc1nnc(CF)s1)[C@H]1c2ccccc2Oc2nc(-c3ccc(C(=O)N4CCOCC4)cc3)ccc21 [Example 430]	47.2%	–
69 nM	–	CC(C)(C(=O)Nc1nnc(CF)s1)[C@H]1c2ccccc2Oc2nc(-c3ccc(C(=O)N4CCCC4)c(F)c3)ccc21 [Example 431]	41.8%	–
52.7 nM	–	CN(C)C(=O)c1ccc(-c2ccc3c(n2)Oc2ccccc2[C@@H]3C(C)(C)C(=O)Nc2nnc(CF)s2)cc1 [Example 432]	40.2%	–
41 nM	–	CC(C)(C(=O)Nc1nnc(CF)s1)[C@H]1c2ccccc2Oc2nc(-c3ccc(C(=O)N4CCCC4)cc3)ccc21 [Example 433]	46.2%	–
–	197 nM	CC(C)(C(=O)Nc1nnc(C#N)s1)[C@H]1c2ccccc2Oc2nc(-c3ccc(C(=O)N4CCOCC4)cc3)ccc21 [Example 434]	–	38.45%
292 nM	–	CC(C)(C(=O)Nc1nnc(C#N)s1)[C@H]1c2ccccc2Oc2nc(-c3ccc(C(=O)N4CCCC4)c(F)c3)ccc21 [Example 435]	27.9%	–
95.7 nM	–	CCCC/C=C/c1ccc2c(n1)Oc1ccccc1[C@@H]2C(C)(C)C(=O)Nc1nncs1 [Example 436]	44%	–
63.9 nM	–	CN(C)C(=O)c1ccc(-c2ccc3c(n2)Oc2ccccc2C3C(C)(C)C(=O)Nc2ncns2)cc1 (centres unmarked) [Example 441]	52.4%	–
127 nM	–	CN(C)C(=O)c1ccc(-c2ccc3c(n2)Oc2ccccc2C3C(C)(C)C(=O)NC2=NCCS2)cc1 (centres unmarked) [Example 442]	50.1%	–
134 nM	–	Cc1csc(NC(=O)C(C)(C)[C@H]2c3ccccc3Oc3nc(-c4ccc(C(=O)N(C)C)cc4)ccc32)n1 [Example 443]	51.7%	–
44.2 nM	–	Cc1cnc(NC(=O)C(C)(C)[C@H]2c3ccccc3Oc3nc(-c4ccc(C(=O)N(C)C)cc4)ccc32)s1 [Example 444]	57.5%	–
38.5 nM	–	Cc1nnc(NC(=O)C(C)(C)[C@H]2c3ccccc3Oc3nc(-c4ccc(C(=O)N(C)C)cc4)ccc32)s1 [Example 445]	45.7%	–
413 nM	–	CN(C)C(=O)c1ccc(-c2ccc3c(n2)Oc2ccccc2[C@@H]3C(C)(C)C(=O)Nc2nnc(C(F)(F)F)s2)cc1 [Example 446]	27.7%	–
95.4 nM	–	CCc1nnc(NC(=O)C(C)(C)[C@H]2c3ccccc3Oc3nc(-c4ccc(C(=O)N(C)C)cc4)ccc32)s1 [Example 447]	53%	–
178 nM	–	CN(C)C(=O)c1ccc(-c2ccc3c(n2)Oc2ccccc2[C@@H]3C(C)(C)C(=O)Nc2nnc(C3CC3)s2)cc1 [Example 448]	56.6%	–
126 nM	–	Cc1nsc(NC(=O)C(C)(C)[C@H]2c3ccccc3Oc3nc(-c4ccc(C(=O)N(C)C)cc4)ccc32)n1 [Example 449]	48.9%	–

EC50 [2]	EC50 (Cellular Transrepression Assay)	SMILES	Emax [1]	AP-1 Max % inh (Cellular Transrepression Assay) (maximum inhibition, Cellular Transrepression Assay)
59.2 nM	–	CC(C)(C(=O)Nc1nncs1)[C@H]1c2ccccc2Oc2nc(-c3cn[nH]c3)ccc21 [Example 450]	26.3%	–
11.1 nM	–	CC(=O)c1ccc(-c2ccc3c(n2)Oc2ccccc2[C@@H]3C(C)(C)C(=O)Nc2nncs2)s1 [Example 452]	53.4%	–
25.3 nM	–	CCN(C)C(=O)c1ccc(-c2ccc3c(n2)Oc2ccccc2[C@@H]3C(C)(C)C(=O)Nc2ncns2)cc1F [Example 454]	49.5%	–
24.6 nM	–	CC(C)(C(=O)Nc1ncns1)[C@H]1c2ccccc2Oc2nc(-c3ccc(C(=O)N4CCCC4)cc3)ccc21 [Example 455]	58.6%	–
41.5 nM	–	CC(C)(C(=O)Nc1ncns1)[C@H]1c2ccccc2Oc2nc(-c3ccc(C(=O)N4CCCC4)c(F)c3)ccc21 [Example 456]	45.8%	–
16.6 nM	–	CC(C)(C(=O)Nc1ncns1)[C@H]1c2ccccc2Oc2nc(-c3ccc(C(=O)N4CCOCC4)cc3)ccc21 [Example 457]	51.9%	–
53.2 nM	–	CC(C)Oc1ccc(-c2ccc3c(n2)Oc2ccccc2[C@@H]3C(C)(C)C(=O)Nc2ncns2)cc1 [Example 458]	35.2%	–
102 nM	–	CC(C)Oc1ccc(-c2ccc3c(n2)Oc2ccccc2[C@@H]3C(C)(C)C(=O)Nc2ncns2)cc1F [Example 459]	35.4%	–
30.3 nM	–	Cc1nnc(NC(=O)C(C)(C)[C@H]2c3ccccc3Oc3nc(-c4ccc(C(=O)N5CCCC5)cc4)ccc32)s1 [Example 460]	56.9%	–
53.4 nM	–	Cc1nnc(NC(=O)C(C)(C)[C@H]2c3ccccc3Oc3nc(-c4ccc(OC(C)C)cc4)ccc32)s1 [Example 461]	50.8%	–
45.3 nM	–	CC(C)(C(=O)Nc1nncs1)[C@H]1c2ccccc2Oc2nc(-c3ccc(C(=O)N4CCOCC4)s3)ccc21 [Example 463]	26.2%	–
18.2 nM	–	CCN(C)C(=O)c1ccc(-c2ccc3c(n2)Oc2ccccc2[C@@H]3C(C)(C)C(=O)Nc2nnc(C)s2)cc1 [Example 464]	54%	–
16.6 nM	–	Cc1nnc(NC(=O)C(C)(C)[C@H]2c3ccccc3Oc3nc(-c4ccc(C(=O)N5CCOCC5)cc4)ccc32)s1 [Example 465]	61.5%	–
28.2 nM	–	Cc1nnc(NC(=O)C(C)(C)[C@H]2c3ccccc3Oc3nc(-c4ccc(C(=O)N5CCC(F)(F)C5)cc4)ccc32)s1 [Example 466]	56.1%	–
15 nM	–	CCN(C)C(=O)c1ccc(-c2ccc3c(n2)Oc2ccccc2[C@@H]3C(C)(C)C(=O)Nc2ncns2)cc1 [Example 467]	57.5%	–
35.4 nM	–	CC(C)(C(=O)Nc1ncns1)[C@H]1c2ccccc2Oc2nc(-c3ccc(C(=O)N4CCOCC4)c(F)c3)ccc21 [Example 468]	53.3%	–
24.6 nM	–	CC(C)(C(=O)Nc1nncs1)[C@H]1c2ccccc2Oc2nc(-c3ccc(CO)s3)ccc21 [Example 470]	43%	–
63.9 nM	–	CN(C)C(=O)c1ccc(-c2ccc3c(n2)Oc2ccccc2[C@@H]3C(C)(C)C(=O)Nc2ncns2)cc1 [Example 471]	52.4%	–
26.9 nM	–	Cc1nnc(NC(=O)C(C)(C)[C@H]2c3ccccc3Oc3nc(-c4ccc(C(=O)N5CCOCC5)c(F)c4)ccc32)s1 [Example 472]	47%	–
40.2 nM	–	Cc1nnc(NC(=O)C(C)(C)[C@H]2c3ccccc3Oc3nc(-c4ccc(C(=O)N5CCOCC5)c(Cl)c4)ccc32)s1 [Example 473]	52.5%	–
85.4 nM	–	Cc1nnc(NC(=O)C(C)(C)[C@H]2c3ccccc3Oc3nc(-c4ccc(C(=O)N(C)C)c(F)c4)ccc32)s1 [Example 474]	37.9%	–
39.8 nM	–	Cc1nnc(NC(=O)C(C)(C)[C@H]2c3ccccc3Oc3nc(-c4ccc(C(=O)N5CCC(F)(F)C5)c(F)c4)ccc32)s1 [Example 477]	44.8%	–
16 nM	–	Cc1nsc(NC(=O)C(C)(C)[C@H]2c3ccccc3Oc3nc(-c4ccc(C(=O)N5CCOCC5)cc4)ccc32)n1 [Example 478]	41.8%	–
47 nM	–	CN(C)C(=O)c1ccc(-c2ccc3c(n2)Oc2ccccc2C3C2(C(=O)Nc3nncs3)CCC2)cc1 (centres unmarked) [Example 479]	44.4%	–
19.3 nM	–	CN(C)C(=O)c1ccc(-c2ccc3c(n2)Oc2ccccc2C3C2(C(=O)Nc3nncs3)CCCC2)cc1 (centres unmarked) [Example 484]	29.8%	–
42.4 nM	–	CN(C)C(=O)c1ccc(-c2ccc3c(n2)Oc2ccccc2C3C2(C(=O)Nc3ncns3)CCCC2)cc1 (centres unmarked) [Example 485]	38.9%	–
15.8 nM	–	O=C(c1ccc(-c2ccc3c(n2)Oc2ccccc2C3C2(C(=O)Nc3nncs3)CCC2)cc1)N1CCOCC1 (centres unmarked) [Example 486]	50.3%	–
